Assay results taken from ChEMBL document CHEMBL4261633, “Butenolides from a marine-derived fungus Aspergillus terreus with antitumor activities against pancreatic ductal adenocarcinoma cells” (Bioorg Med Chem, 2018).
Activity calls are given as the source filed them. The rule behind the calls is not given here.

What was measured:
PANC-1 [1] = assay: Cell cycle arrest in human PANC1 cells assessed as accumulation at G1 phase at 10 uM after 24 hrs by RNAase/propidium iodide staining-based flow cytometric analysis (reference value: 67.93 to 75.87%); assay type: functional
PANC-1 [2] = assay: Antiproliferative activity against human PANC1 cells after 24 hrs by CCK8 assay; assay type: functional, cell-based; conditions: PANC-1, 24 h
HCC1806 = assay: Antiproliferative activity against human HCC1806 cells after 24 hrs by CCK8 assay; assay type: functional, cell-based; conditions: HCC1806, 24 h
HepG2 = assay: Antiproliferative activity against human HepG2 cells after 24 hrs by CCK8 assay; assay type: functional, cell-based; conditions: HepG2, 24 h
BEAS-2B = assay: Antiproliferative activity against human BEAS2B cells after 24 hrs by CCK8 assay; assay type: functional, cell-based
HT-29 = assay: Antiproliferative activity against human HT-29 cells after 24 hrs by CCK8 assay; assay type: functional, cell-based; conditions: HT-29, 24 h
PANC-1 [3] = assay: Induction of apoptosis in human PANC1 cells assessed as nuclear chromatin condensation at 10 uM after 24 hrs by Hoechst 33258 staining based fluorescence microscopic analysis; assay type: functional, cell-based
PANC-1 [4] = assay: Induction of apoptosis in human PANC1 cells assessed as nuclear shrinkage at 10 uM after 24 hrs by Hoechst 33258 staining based fluorescence microscopic analysis; assay type: functional, cell-based
PANC-1 [5] = assay: Induction of apoptosis in human PANC1 cells assessed as nuclear fragmentation at 10 uM after 24 hrs by Hoechst 33258 staining based fluorescence microscopic analysis; assay type: functional, cell-based
PANC-1 [6] = assay: Induction of apoptosis in human PANC1 cells assessed as nuclear chromatin condensation at 25 uM after 24 hrs by Hoechst 33258 staining based fluorescence microscopic analysis; assay type: functional, cell-based
PANC-1 [7] = assay: Induction of apoptosis in human PANC1 cells assessed as nuclear shrinkage at 25 uM after 24 hrs by Hoechst 33258 staining based fluorescence microscopic analysis; assay type: functional, cell-based
PANC-1 [8] = assay: Induction of apoptosis in human PANC1 cells assessed as nuclear fragmentation at 25 uM after 24 hrs by Hoechst 33258 staining based fluorescence microscopic analysis; assay type: functional, cell-based
PANC-1 [9] = assay: Cell cycle arrest in human PANC1 cells assessed as accumulation at G1 phase at 5 uM after 24 hrs by RNAase/propidium iodide staining-based flow cytometric analysis (reference value: 67.93 to 75.87%); assay type: functional
PANC-1 [10] = assay: Cell cycle arrest in human PANC1 cells assessed as accumulation at G2/M phase at 5 uM after 24 hrs by RNAase/propidium iodide staining-based flow cytometric analysis (reference value: 6.83 to 11.82%); assay type: functional
PANC-1 [11] = assay: Cell cycle arrest in human PANC1 cells assessed as accumulation at S phase at 5 uM after 24 hrs by RNAase/propidium iodide staining-based flow cytometric analysis (reference value: 11.66 to 19.02%); assay type: functional
PANC-1 [12] = assay: Cell cycle arrest in human PANC1 cells assessed as accumulation at G2/M phase at 10 uM after 24 hrs by RNAase/propidium iodide staining-based flow cytometric analysis (reference value: 6.83 to 11.82%); assay type: functional
PANC-1 [13] = assay: Cell cycle arrest in human PANC1 cells assessed as accumulation at S phase at 10 uM after 24 hrs by RNAase/propidium iodide staining-based flow cytometric analysis (reference value: 11.66 to 19.02%); assay type: functional
PANC-1 [14] = assay: Cell cycle arrest in human PANC1 cells assessed as accumulation at G1 phase at 15 uM after 24 hrs by RNAase/propidium iodide staining-based flow cytometric analysis (reference value: 67.93 to 75.87%); assay type: functional
PANC-1 [15] = assay: Cell cycle arrest in human PANC1 cells assessed as accumulation at G2/M phase at 15 uM after 24 hrs by RNAase/propidium iodide staining-based flow cytometric analysis (reference value: 6.83 to 11.82%); assay type: functional
PANC-1 [16] = assay: Cell cycle arrest in human PANC1 cells assessed as accumulation at S phase at 15 uM after 24 hrs by RNAase/propidium iodide staining-based flow cytometric analysis (reference value: 11.66 to 19.02%); assay type: functional
PANC-1 [17] = assay: Cell cycle arrest in human PANC1 cells assessed as accumulation at G1 phase at 25 uM after 24 hrs by RNAase/propidium iodide staining-based flow cytometric analysis (reference value: 67.93 to 75.87%); assay type: functional
PANC-1 [18] = assay: Cell cycle arrest in human PANC1 cells assessed as accumulation at G2/M phase at 25 uM after 24 hrs by RNAase/propidium iodide staining-based flow cytometric analysis (reference value: 6.83 to 11.82%); assay type: functional
PANC-1 [19] = assay: Cell cycle arrest in human PANC1 cells assessed as accumulation at S phase at 25 uM after 24 hrs by RNAase/propidium iodide staining-based flow cytometric analysis (reference value: 11.66 to 19.02%); assay type: functional
PANC-1 [20] = assay: Induction of apoptosis in human PANC1 cells assessed as necrotic cells at 5 uM after 24 hrs by FITC-Annexin V/propidium iodide staining-based flow cytometric analysis (reference value: 0.7 to 1.4%); assay type: functional
PANC-1 [21] = assay: Induction of apoptosis in human PANC1 cells assessed as late apoptotic cells at 5 uM after 24 hrs by FITC-Annexin V/propidium iodide staining-based flow cytometric analysis (reference value: 0.0 to 0.7%); assay type: functional
PANC-1 [22] = assay: Induction of apoptosis in human PANC1 cells assessed as early apoptotic cells at 5 uM after 24 hrs by FITC-Annexin V/propidium iodide staining-based flow cytometric analysis (reference value: 0.5 to 3.2%); assay type: functional
PANC-1 [23] = assay: Induction of apoptosis in human PANC1 cells assessed as viable cells at 5 uM after 24 hrs by FITC-Annexin V/propidium iodide staining-based flow cytometric analysis (reference value: 94.7 to 98.7%); assay type: functional; conditions: PANC-1, 24 h, read-out: Activity
PANC-1 [24] = assay: Induction of apoptosis in human PANC1 cells assessed as necrotic cells at 10 uM after 24 hrs by FITC-Annexin V/propidium iodide staining-based flow cytometric analysis (reference value: 0.7 to 1.4%); assay type: functional
PANC-1 [25] = assay: Induction of apoptosis in human PANC1 cells assessed as late apoptotic cells at 10 uM after 24 hrs by FITC-Annexin V/propidium iodide staining-based flow cytometric analysis (reference value: 0.0 to 0.7%); assay type: functional
PANC-1 [26] = assay: Induction of apoptosis in human PANC1 cells assessed as early apoptotic cells at 10 uM after 24 hrs by FITC-Annexin V/propidium iodide staining-based flow cytometric analysis (reference value: 0.5 to 3.2%); assay type: functional
PANC-1 [27] = assay: Induction of apoptosis in human PANC1 cells assessed as viable cells at 10 uM after 24 hrs by FITC-Annexin V/propidium iodide staining-based flow cytometric analysis (reference value: 94.7 to 98.7%); assay type: functional; conditions: PANC-1, 24 h, read-out: Activity
PANC-1 [28] = assay: Induction of apoptosis in human PANC1 cells assessed as necrotic cells at 15 uM after 24 hrs by FITC-Annexin V/propidium iodide staining-based flow cytometric analysis (reference value: 0.7 to 1.4%); assay type: functional
PANC-1 [29] = assay: Induction of apoptosis in human PANC1 cells assessed as late apoptotic cells at 15 uM after 24 hrs by FITC-Annexin V/propidium iodide staining-based flow cytometric analysis (reference value: 0.0 to 0.7%); assay type: functional
PANC-1 [30] = assay: Induction of apoptosis in human PANC1 cells assessed as early apoptotic cells at 15 uM after 24 hrs by FITC-Annexin V/propidium iodide staining-based flow cytometric analysis (reference value: 0.5 to 3.2%); assay type: functional
PANC-1 [31] = assay: Induction of apoptosis in human PANC1 cells assessed as viable cells at 15 uM after 24 hrs by FITC-Annexin V/propidium iodide staining-based flow cytometric analysis (reference value: 94.7 to 98.7%); assay type: functional; conditions: PANC-1, 24 h, read-out: Activity
PANC-1 [32] = assay: Induction of apoptosis in human PANC1 cells assessed as necrotic cells at 25 uM after 24 hrs by FITC-Annexin V/propidium iodide staining-based flow cytometric analysis (reference value: 0.7 to 1.4%); assay type: functional
PANC-1 [33] = assay: Induction of apoptosis in human PANC1 cells assessed as late apoptotic cells at 25 uM after 24 hrs by FITC-Annexin V/propidium iodide staining-based flow cytometric analysis (reference value: 0.0 to 0.7%); assay type: functional
PANC-1 [34] = assay: Induction of apoptosis in human PANC1 cells assessed as early apoptotic cells at 25 uM after 24 hrs by FITC-Annexin V/propidium iodide staining-based flow cytometric analysis (reference value: 0.5 to 3.2%); assay type: functional
PANC-1 [35] = assay: Induction of apoptosis in human PANC1 cells assessed as viable cells at 25 uM after 24 hrs by FITC-Annexin V/propidium iodide staining-based flow cytometric analysis (reference value: 94.7 to 98.7%); assay type: functional; conditions: PANC-1, 24 h, read-out: Activity
PANC-1 [36] = assay: Induction of apoptosis in human PANC1 cells after 24 hrs by FITC-Annexin V/propidium iodide staining-based flow cytometric analysis; assay type: functional, cell-based

Q: `COC(=O)[C@]1(Cc2ccc(O)c(CC=C(C)C)c2)OC(=O)C(O)=C1c1ccccc1` was tested. Which Activity (PANC-1 [1]) did it give?
A: The Activity was 56.57%.

Q: And the IC50 (PANC-1 [2])?
A: The IC50 was 9.4 µM.

Q: What about the IC50 (HCC1806) of the same compound?
A: The IC50 was 18.7 µM.

Q: And the IC50 (HepG2)?
A: Its IC50 is 12.9 µM.

Q: What about the IC50 (BEAS-2B) of the same compound?
A: Its IC50 is greater than 20 µM.

Q: What about the IC50 (HT-29) of the same compound?
A: The IC50 was greater than 20 µM.

Q: What about the Activity (PANC-1 [3]) of the same compound?
A: Its Activity is “Active”.

Q: What about the Activity (PANC-1 [4]) of the same compound?
A: Its Activity is “Active”.

Q: What about the Activity (PANC-1 [5]) of the same compound?
A: Its Activity is “Active”.

Q: And the Activity (PANC-1 [6])?
A: The Activity was “Active”.

Q: What about the Activity (PANC-1 [7]) of the same compound?
A: The Activity was “Active”.

Q: And the Activity (PANC-1 [8])?
A: The Activity was “Active”.

Q: What about the Activity (PANC-1 [9]) of the same compound?
A: The Activity was 72.84%.

Q: And the Activity (PANC-1 [10])?
A: The Activity was 7.77%.

Q: What about the Activity (PANC-1 [11]) of the same compound?
A: Its Activity is 10.92%.

Q: And the Activity (PANC-1 [12])?
A: The Activity was 8.14%.

Q: And the Activity (PANC-1 [13])?
A: The Activity was 31.28%.

Q: What about the Activity (PANC-1 [14]) of the same compound?
A: Its Activity is 52.41%.

Q: And the Activity (PANC-1 [15])?
A: Its Activity is 7.7%.

Q: And the Activity (PANC-1 [16])?
A: Its Activity is 32.92%.

Q: And the Activity (PANC-1 [17])?
A: Its Activity is 43.95%.

Q: What about the Activity (PANC-1 [18]) of the same compound?
A: The Activity was 10.63%.

Q: And the Activity (PANC-1 [19])?
A: Its Activity is 42.63%.

Q: And the Activity (PANC-1 [20])?
A: The Activity was 1.3%.

Q: What about the Activity (PANC-1 [21]) of the same compound?
A: Its Activity is 0.8%.

Q: And the Activity (PANC-1 [22])?
A: Its Activity is 6.8%.

Q: And the viability at 5 µM (PANC-1 [23])?
A: The viability at 5 µM was 91.1%.

Q: What about the Activity (PANC-1 [24]) of the same compound?
A: Its Activity is 1.2%.

Q: And the Activity (PANC-1 [25])?
A: The Activity was 1.4%.

Q: And the Activity (PANC-1 [26])?
A: Its Activity is 13.6%.

Q: What about the viability at 10 µM (PANC-1 [27]) of the same compound?
A: The viability at 10 µM was 83.9%.

Q: What about the Activity (PANC-1 [28]) of the same compound?
A: Its Activity is 0.9%.

Q: What about the Activity (PANC-1 [29]) of the same compound?
A: Its Activity is 1%.

Q: What about the Activity (PANC-1 [30]) of the same compound?
A: The Activity was 14.9%.

Q: What about the viability at 15 µM (PANC-1 [31]) of the same compound?
A: Its viability at 15 µM is 83.2%.

Q: And the Activity (PANC-1 [32])?
A: The Activity was 2.3%.

Q: And the Activity (PANC-1 [33])?
A: The Activity was 3%.

Q: And the Activity (PANC-1 [34])?
A: Its Activity is 21.1%.

Q: And the viability at 25 µM (PANC-1 [35])?
A: Its viability at 25 µM is 73.6%.

Q: What about the Activity (PANC-1 [36]) of the same compound?
A: The Activity was “Dose-dependent effect”.
